Data: ChEMBL document CHEMBL5385876, “Discovery of unglycosylated indolocarbazoles as ROCK2 isoform-selective inhibitors for the treatment of breast cancer metastasis” (Eur J Med Chem, 2023)
Where a name gives a salt, the structure may show the parent alone.

Biological target: Rho-associated protein kinase 2 (Homo sapiens, UniProt O75116)
Assay: Inhibition of N-terminal His10-StrepII tagged human ROCK2 catalytic domain (1 to 553 residues) expressed in Sf9 insect cells by HTRF assay
Conditions: not given

Rho-associated protein kinase 2, sequence (O75116 whole entry, the tested form may be a part): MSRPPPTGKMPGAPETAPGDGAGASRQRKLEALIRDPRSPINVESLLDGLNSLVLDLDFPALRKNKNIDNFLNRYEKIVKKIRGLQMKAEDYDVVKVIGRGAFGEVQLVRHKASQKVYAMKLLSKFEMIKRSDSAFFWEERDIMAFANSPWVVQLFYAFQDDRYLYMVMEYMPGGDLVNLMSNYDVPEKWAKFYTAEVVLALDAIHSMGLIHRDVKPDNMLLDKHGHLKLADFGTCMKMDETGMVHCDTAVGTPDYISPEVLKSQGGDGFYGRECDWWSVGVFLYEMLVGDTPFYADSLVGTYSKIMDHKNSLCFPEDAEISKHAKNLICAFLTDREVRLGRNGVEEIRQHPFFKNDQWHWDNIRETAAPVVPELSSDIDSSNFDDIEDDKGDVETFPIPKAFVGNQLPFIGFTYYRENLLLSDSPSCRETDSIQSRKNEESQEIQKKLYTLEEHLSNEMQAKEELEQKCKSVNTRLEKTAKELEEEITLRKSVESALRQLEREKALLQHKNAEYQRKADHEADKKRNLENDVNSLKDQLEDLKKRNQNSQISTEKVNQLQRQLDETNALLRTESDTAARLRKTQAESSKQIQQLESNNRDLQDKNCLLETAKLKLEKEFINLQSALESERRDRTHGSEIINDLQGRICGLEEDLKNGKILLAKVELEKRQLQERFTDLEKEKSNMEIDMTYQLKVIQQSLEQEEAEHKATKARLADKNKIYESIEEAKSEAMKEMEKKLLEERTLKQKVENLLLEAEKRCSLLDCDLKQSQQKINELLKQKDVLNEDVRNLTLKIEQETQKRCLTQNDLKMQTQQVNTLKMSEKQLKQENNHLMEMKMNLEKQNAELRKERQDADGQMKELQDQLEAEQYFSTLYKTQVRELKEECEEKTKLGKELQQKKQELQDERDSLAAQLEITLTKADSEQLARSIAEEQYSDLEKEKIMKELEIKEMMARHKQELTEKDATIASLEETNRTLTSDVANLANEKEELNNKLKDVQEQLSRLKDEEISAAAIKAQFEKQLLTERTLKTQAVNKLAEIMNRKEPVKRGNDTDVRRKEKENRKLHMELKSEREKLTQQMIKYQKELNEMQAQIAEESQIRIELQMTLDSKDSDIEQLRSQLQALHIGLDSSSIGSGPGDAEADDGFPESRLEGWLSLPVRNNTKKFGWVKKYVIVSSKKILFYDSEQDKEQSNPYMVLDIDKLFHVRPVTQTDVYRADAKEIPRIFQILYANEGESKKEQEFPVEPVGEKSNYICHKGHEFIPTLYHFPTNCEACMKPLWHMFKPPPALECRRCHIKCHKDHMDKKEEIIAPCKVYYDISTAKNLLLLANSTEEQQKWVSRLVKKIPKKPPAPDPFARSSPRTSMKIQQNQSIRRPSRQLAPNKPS

SMILES | IC50
CN[C@]1(C(=O)OC)C[C@H]2O[C@]1(C)n1c3ccccc3c3c4c(c5c6ccccc6n2c5c31)C(=O)NC4 | > 500 nM
CO[C@@H]1C(=O)C[C@H]2O[C@]1(C)n1c3ccccc3c3c4c(c5c6ccccc6n2c5c31)C(=O)NC4 | > 500 nM
CC(C)(C)c1ccc2[nH]c3c4[nH]c5ccccc5c4c4c(c3c2c1)C(=O)NC4=O | > 500 nM
CO[C@@H]1[C@H](O)[C@H](O)[C@H](C)O[C@H]1n1c2ccc(O)cc2c2c3c(c4c5ccccc5[nH]c4c21)CNC3=O | > 500 nM
COC1=C(C)O[C@@H]2C[C@@]1(OC)n1c3ccccc3c3c4c(c5c6ccccc6n2c5c31)C(=O)NC4 | > 500 nM

More lines, now with the values ahead:

IC50 | SMILES
360 nM | C[C@]12O[C@H](C[C@@H](N)[C@H]1O)n1c3ccccc3c3c4c(c5c6ccccc6n2c5c31)C(=O)NC4=O
720 nM | CO[C@@H]1[C@@H](O)C[C@H]2O[C@]1(C)n1c3ccccc3c3c4c(c5c6ccccc6n2c5c31)C(=O)NC4
> 500 nM | O=C1NCc2c1c1c3ccccc3[nH]c1c1[nH]c3c(O)cccc3c21
> 500 nM | C[C@@H]1O[C@@H](n2c3ccccc3c3c4c(c5c6ccccc6[nH]c5c32)[C@H](O)NC4=O)[C@H](O)[C@H](O)[C@H]1O
110 nM | COc1ccc2[nH]c3c4[nH]c5ccc(O)cc5c4c4c(c3c2c1)C(=O)NC4=O
8220 nM | CC1NC(=O)c2c1c1c3ccccc3[nH]c1c1[nH]c3ccccc3c21 (centres undefined)

Test system: not listed separately
Assay: Toxicity in BALB/c nude mouse xenografted with human MDA-MB-231 cells harboring Luc-mcherry assessed as reduction in body weight at 15 mg/kg, iv administered once a day for 45 days
Assay type: organism-based
Conditions: in vivo, 1080 h, time 45 day

SMILES | Activity
C[C@@H](N)[C@H]1CC[C@H](C(=O)Nc2ccncc2)CC1 [Y-27632] | Non-Toxic

Test system: MDA-MB-231
Assay: Antiproliferative activity against human MDA-MB-231 cells assessed as suppression of cell growth incubated for 72 hrs by SRB assay
Assay type: functional, cell-based
Conditions: MDA-MB-231, 72 h

IC50 | SMILES
1010 nM | COc1cccc2c1C(=O)c1c(O)c3c(c(O)c1C2=O)C[C@@](O)(C(=O)CO)C[C@@H]3O[C@H]1C[C@H](N)[C@H](O)[C@H](C)O1 [DOXORUBICIN HYDROCHLORIDE]

Test system: SK-OV-3
Assay: Antiproliferative activity against human SK-OV-3 cells assessed as suppression of cell growth incubated for 72 hrs by SRB assay
Assay type: functional, cell-based
Conditions: SK-OV-3, 72 h

IC50 | SMILES
480 nM | COc1cccc2c1C(=O)c1c(O)c3c(c(O)c1C2=O)C[C@@](O)(C(=O)CO)C[C@@H]3O[C@H]1C[C@H](N)[C@H](O)[C@H](C)O1 [DOXORUBICIN HYDROCHLORIDE]
